Laboratory results as given in PubChem BioAssay AID437 (SGCStoCompounds, 2006).

Target: Inositol-trisphosphate 3-kinase C (Homo sapiens) (UniProt Q96DU7)
Assay: IP3 3-kinase C ligand binding via Tm shift – biophysical, DSF, SYPRO orange, purified human protein (AID 437)
Details: DSF thermal shift, at 20 µM, protein 5.9 µM, buffer 300 mM NaCl, 50 mM Hepes, 10% glycerol, 2 mM TCEP pH 7.5, active compounds read high

Chain of Inositol-trisphosphate 3-kinase C (Homo sapiens) (Q96DU7 whole entry, looked up): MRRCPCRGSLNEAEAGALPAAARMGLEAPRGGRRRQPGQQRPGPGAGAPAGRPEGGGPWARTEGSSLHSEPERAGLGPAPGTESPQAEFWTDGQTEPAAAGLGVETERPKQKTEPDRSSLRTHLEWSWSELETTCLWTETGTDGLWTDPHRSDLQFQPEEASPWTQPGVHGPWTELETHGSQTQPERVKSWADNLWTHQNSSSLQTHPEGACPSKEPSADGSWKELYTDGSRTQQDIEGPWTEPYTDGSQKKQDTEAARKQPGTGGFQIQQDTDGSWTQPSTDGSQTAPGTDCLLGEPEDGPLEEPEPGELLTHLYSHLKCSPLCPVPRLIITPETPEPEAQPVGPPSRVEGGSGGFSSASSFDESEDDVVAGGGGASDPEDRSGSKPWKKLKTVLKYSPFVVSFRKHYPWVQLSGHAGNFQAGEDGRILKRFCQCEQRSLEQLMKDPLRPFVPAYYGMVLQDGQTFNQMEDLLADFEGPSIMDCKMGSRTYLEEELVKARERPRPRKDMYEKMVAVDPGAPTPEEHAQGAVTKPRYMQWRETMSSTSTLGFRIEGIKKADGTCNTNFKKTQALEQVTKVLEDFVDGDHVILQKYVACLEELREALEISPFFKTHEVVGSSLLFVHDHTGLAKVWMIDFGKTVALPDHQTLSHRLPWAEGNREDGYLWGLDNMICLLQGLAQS

Structure (SMILES)	Tm shift [Celsius]
Oc1ccc(-c2nc(-c3ccc(F)cc3)c(-c3ccncc3)[nH]2)cc1	4.4
CNC(=O)c1cc(Oc2ccc(NC(=O)Nc3ccc(C)c(C(F)(F)F)c3)cc2)ccn1	5.7
CCOc1cc(/C=C(\C#N)CON)cc(CSc2ccccc2)c1O	4.2
NC(O)(O)c1ccc(N=Nc2c(O)[nH]c3ccc(Cl)cc23)cc1	3.7
Nc1ncnc2c1C(I)CN2[C@@H]1O[C@H](CO)C(O)C1O (some centres not stated)	4.7
C=S(C)c1ccc(CSc2nc(-c3ccc(F)cc3)c(-c3ccncc3)[nH]2)cc1 (configuration not stated)	5.6
O=c1c2ccccc2[nH]c(=S)n1CCN1CCC(=C(c2ccc(F)cc2)c2ccc(F)cc2)CC1	6.4
Brc1c(Br)c(Br)c2n[nH]nc2c1Br	4.6
COC1=CC(/C=C/C(=O)CC(=O)/C=C/c2ccc(O)c(OC)c2)=CCC1O (configuration not stated)	6.6

More lines, now with the values ahead:

Tm shift [Celsius]	Structure (SMILES)
3.2	CN(C)S(O)(O)c1ccc2c(c1)/C(=C/c1cc3c([nH]1)CCCC3)C(=O)N2
10.4	O=C1Nc2ccc(I)cc2/C1=C/c1cc(Br)c(O)c(Br)c1
3.3	CC(C)(C)c1nc2c3cc[nH]c(=O)c3c3cc(F)ccc3c2[nH]1
3.1	O=C1Cc2c([nH]c3ccc(Br)cc23)-c2ccccc2N1
3.3	O=c1c(-c2ccc(O)cc2)coc2cc(O)cc(O)c12
13.3	O=C1c2c(O)cc(O)cc2OC(c2ccc(O)c(O)c2)C1O (configuration not stated)
5.2	NC1=CC2N=CN=C(Nc3cccc(Br)c3)C2C=C1N (configuration not stated)
3	NC1=N/C(=C2/CCNC(=O)c3[nH]c(Br)cc32)C(=O)N1
